Patent US7112601B2, “Cycloalkyl heterocycles for treating hepatitis C virus” (priority 2003, dated 2006)

Each compound was assayed against T1, HCV NS5B RdRp (Hepatitis C virus genotype 1b, UniProt Q9WMX2) (assay: HCV NS5B RdRp enzyme inhibition assay).
T1 construct: The protein was expressed with an 18 amino acid C-terminal truncation to enhance the solubility; made in house; host or cells: E. coli BL21(DE3)
Assay type: biochemical
Experimental: HCV NS5B RdRp cloning, expression, and purification. The cDNA encoding the NS5B protein of HCV, genotype 1b, was cloned into the pET21a expression vector. The protein was expressed with an 18 amino acid C-terminal truncation to enhance the solubility. The E. coli competent cell line BL21(DE3) was used for expression of the protein. Cultures were grown at 37° C. for ˜4 hours until the cultures reached an optical density of 2.0 at 600 nm. The cultures were cooled to 20° C. and induced with 1 mM IPTG. Fresh ampicillin was added to a final concentration of 50 ug/ml and the cells were grown overnight at 20° C.
Cell pellets (3L) were lysed for purification to yield 15–24 mgs of purified NS5B. The lysis buffer consisted of 20 mM Tris-HCl, pH 7.4, 500 mM NaCl, 0.5% triton X-100, 1 mM DTT, 1 mM EDTA, 20% glycerol, 0.5 mg/ml lysozyme, 10 mM MgCl2, 15 ug/ml deoxyribonuclease I, and Complete TM protease inhibitor tablets (Roche). After addition of the lysis buffer, frozen cell pellets were resuspended using a tissue homogenizer. To reduce the viscosity of the sample, aliquots of the lysate were sonicated on ice using a microtip attached to a Branson sonicator. The sonicated lysate was centrifuged at 100,000×g for 1 hr at 4° C. and filtered through a 0.2 μm filter unit (Corning).
The protein was purified using three sequential chromatography steps: Heparin sepharose CL-6B, polyU sepharose 4B, and Hitrap SP sepharose (Pharmacia). The chromatography buffers were identical to the lysis buffer but contained no lysozyme, deoxyribonuclease I, MgCl2 or protease inhibitor and the NaCl concentration of the buffer was adjusted according to the requirements for charging the protein onto the column. Each column was eluted with a NaCl gradient which varied in length from 5–50 column volumes depending on the column type. After the final chromatography step, the resulting purity of the enzyme is >90% based on SDS-PAGE analysis. The enzyme was aliquoted and stored at −80° C.
HCV NS5B RdRp enzyme assay. HCV RdRp genotype 1b assays were run in assay buffer composed of 20 mM Tris-HCl, pH 7.5, 2.5 mM KCl, 5 mM MgCl2, 1 mM DTT, 1.6 U RNAse inhibitor (Promega N2515), in 96 well plates (Falcon 3918). All compounds were serially diluted in DMSO and diluted further in assay buffer such that the final concentration of DMSO in the assay was 2%. Compounds were serially diluted (3-fold each time) for a 7 point inhibition analysis. HCV RdRp genotype 1b enzyme was used at a final concentration of 28 nM. A polyA template was used at 28 nM, and the oligo-dT12-18 primer was used at 840 nM final concentration. Preannealed primer and template were obtained commercially (Amersham 27-787802). ^3H-UTP was used at 0.125 μCi (1 μM total UTP). Reaction was initiated by the addition of enzyme. Reactions were incubated at 30° C. for 45 min, and stopped by adding 30 ul of 20% ice cold TCA. Plates were chilled for 30 minutes and harvested onto Unifilter-96, GF/B plates (Packard, 6005177) using a Packard FilterMate Cell Harvester. The harvest plates were prewashed 3 times, 200 ul/well, with 100 mM NaPPi. Harvested filters were washed 30 times, 200 ul/well, with distilled water followed by ethanol. Filter plates were dried, and 30 ul/well microscint-20 was added. Plates were read on a Packard Top Count NXT.
The IC50 values for compounds were determined using […] different [I], combined with 7 nM enzyme, 800 ng of the template-primer polyC/oligoG12 (1:5 molar ratio), and 0.7 uM of ^3H GTP containing 1 uCi. The observed fractional activity (fa=vi/vo) was used in the equation IC50=[I]/(1/fa-1) to determine a single point IC50 value. Typically, the single point IC50 values derived from [I] that produced fractional activities in the range of 0.1 to 0.8 relative to the uninhibited control were averaged to calculate the IC50 value for each compound.

T1 sequence (Q9WMX2 2420-2992): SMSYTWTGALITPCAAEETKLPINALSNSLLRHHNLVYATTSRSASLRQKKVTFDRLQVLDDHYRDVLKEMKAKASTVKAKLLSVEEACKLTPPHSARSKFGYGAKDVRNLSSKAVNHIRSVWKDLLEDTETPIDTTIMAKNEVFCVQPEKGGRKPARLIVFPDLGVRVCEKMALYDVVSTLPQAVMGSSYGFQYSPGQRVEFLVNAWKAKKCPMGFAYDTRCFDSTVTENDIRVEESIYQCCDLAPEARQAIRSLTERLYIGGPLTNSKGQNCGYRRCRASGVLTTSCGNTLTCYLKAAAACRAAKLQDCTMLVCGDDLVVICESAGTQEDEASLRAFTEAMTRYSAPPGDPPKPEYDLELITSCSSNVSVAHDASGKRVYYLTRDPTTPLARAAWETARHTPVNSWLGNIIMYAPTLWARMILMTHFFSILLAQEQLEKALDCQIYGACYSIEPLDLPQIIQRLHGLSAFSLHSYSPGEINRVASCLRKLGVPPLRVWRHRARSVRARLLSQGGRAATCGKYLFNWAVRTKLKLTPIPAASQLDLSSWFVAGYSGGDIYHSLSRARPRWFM

`CCOC(=O)c1cc(-c2ccc(OCc3ccccc3)cc2)n(C2CCCCC2)n1` [Example 1, Ethyl 1-cyclohexyl-5-(4-benzyloxyphenyl)-1H-pyrazole-3-carboxylate] and `CCOC(=O)C#Cc1cc(-c2ccc(OCc3ccccc3)cc2)n(C2CCCCC2)n1` [Example 18, Ethyl 3-{5-[4-(benzyloxy)phenyl]-1-cyclohexyl-1H-pyrazol-3-yl}-2-propynoate] cannot be ordered by IC50: > 25 µM for the first, > 25 µM for the second.

Going from `COC(=O)/C=C/c1cc(-c2ccc(OCc3ccccc3)cc2)n(C2CCCCC2)n1` [Example 2, Methyl (2E)-3-{5-[4-(benzyloxy)phenyl]-1-cyclohexyl-1H-pyrazol-3-yl}-2-propenoate] to `O=C(O)/C=C/c1cc(-c2ccc(OCc3ccccc3)cc2)n(C2CCCCC2)n1` [Example 3, (2E)-3-[1-cyclohexyl-5-(4-benzyloxyphenyl)-1H-pyrazol-3-yl]-2-propenoic acid], the IC50 falls from > 25 µM to 15 µM.

Compared with `COC(=O)/C=C/c1cc(-c2ccc(OCc3cc(OC)ccc3-c3ccc(Cl)cc3)cc2)n(C2CCCCC2)n1` [Example 4, Methyl (2E)-3-(5-{4-[(4′-chloro-4-methoxy-1,1′-biphenyl-2-yl)methoxy]phenyl}-1-cyclohexyl-1H-pyrazol-3-yl)-2-propenoate], `COc1ccc(-c2ccc(Cl)cc2)c(COc2ccc(-c3cc(/C=C/C(=O)O)nn3C3CCCCC3)cc2)c1` [Example 5, (2E)-3-(5-{4-[(4′-chloro-4-methoxy-1,1′-biphenyl-2-yl)methoxy]phenyl}-1-cyclohexyl-1H-pyrazol-3-yl)-2-propenoic acid] is lower in IC50: > 25 µM for the first, 0.45 µM for the second. The second is the more potent here.

First: CCOC(=O)/C(C)=C/c1cc(-c2ccc(OCc3ccccc3)cc2)n(C2CCCCC2)n1 [Example 6, Ethyl (2E)-3-{5-[4-(benzyloxy)phenyl]-1-cyclohexyl-1H-pyrazol-3-yl}-2-methyl-2-propenoate]
Second: C/C(=C\c1cc(-c2ccc(OCc3ccccc3)cc2)n(C2CCCCC2)n1)C(=O)O [Example 7, (2E)-3-{5-[4-(benzyloxy)phenyl]-1-cyclohexyl-1H-pyrazol-3-yl}-2-methyl-2-propenoic acid]
The IC50 of the first is higher: > 25 µM for the first, 10 µM for the second.

Compared with `CCOC(=O)/C(C)=C/c1cc(-c2ccc(OCc3cc(OC)ccc3-c3ccc(Cl)cc3)cc2)n(C2CCCCC2)n1` [Example 8, Ethyl (2E)-3-(5-{4-[(4′-chloro-4-methoxy-1,1′-biphenyl-2-yl)methoxy]phenyl}-1-cyclohexyl-1H-pyrazol-3-yl)-2-methyl-2-propenoate], `COc1ccc(-c2ccc(Cl)cc2)c(COc2ccc(-c3cc(/C=C(\C)C(=O)O)nn3C3CCCCC3)cc2)c1` [Example 9, (2E)-3-(5-{4-[(4′-chloro-4-methoxy-1,1′-biphenyl-2-yl)methoxy]phenyl}-1-cyclohexyl-1H-pyrazol-3-yl)-2-methyl-2-propenoic acid] is lower in IC50: > 25 µM for the first, 0.27 µM for the second.

`CCOC(=O)/C(C)=C/c1cc(-c2ccc(OCc3cc(C(=O)OC(C)(C)C)ccc3Br)cc2)n(C2CCCCC2)n1` [Example 10, Ethyl (2E)-3-(5-{4-[(t-butyl-2-bromo-5-phenylcarboxylate)methoxy]phenyl}-1-cyclohexyl-1H-pyrazol-3-yl)-2-methyl-2-propenoate] and `CCOC(=O)/C(C)=C/c1cc(-c2ccc(OCc3cc(C(=O)OC(C)(C)C)ccc3-c3ccc(Cl)cc3)cc2)n(C2CCCCC2)n1` [Example 11, Ethyl (2E)-3-(5-{4-[(4′-chloro-4-t-butoxycarbonyl-1,1′-biphenyl-2-yl)methoxy]phenyl}-1-cyclohexyl-1H-pyrazol-3-yl)-2-methyl-2-propenoate] cannot be ordered by IC50: > 25 µM for the first, > 25 µM for the second.

Compared with `CCOC(=O)/C(C)=C/c1cc(-c2ccc(OCc3cc(C(=O)NC)ccc3-c3ccc(Cl)cc3)cc2)n(C2CCCCC2)n1` [Example 12, Ethyl (2E)-3-(5-{4-[(4′-Chloro-4-N-methylcarbamoyl-1,1′-biphenyl-2-yl)methoxy]phenyl}-1-cyclohexyl-1H-pyrazol-3-yl)-2-methyl-2-propenoate], `CNC(=O)c1ccc(-c2ccc(Cl)cc2)c(COc2ccc(-c3cc(/C=C(\C)C(=O)O)nn3C3CCCCC3)cc2)c1` [Example 13, (2E)-3-(5-{4-[(4′-Chloro-4-N-methylcarbamoyl-1,1′-biphenyl-2-yl)methoxy]phenyl}-1-cyclohexyl-1H-pyrazol-3-yl)-2-methyl-2-propenoic acid] is lower in IC50: > 25 µM for the first, 0.38 µM for the second. The second is the more potent here.

`COC(=O)CCc1cc(-c2ccc(OCc3ccccc3)cc2)n(C2CCCCC2)n1` [Example 14, Methyl 3-{5-[4-(benzyloxy)phenyl]-1-cyclohexyl-1H-pyrazol-3-yl}propanoate] and `O=C(O)CCc1cc(-c2ccc(OCc3ccccc3)cc2)n(C2CCCCC2)n1` [Example 15, 3-{5-[4-(benzyloxy)phenyl]-1-cyclohexyl-1H-pyrazol-3-yl}propanoic acid] cannot be ordered by IC50: > 25 µM for the first, > 25 µM for the second.

Going from `COC(=O)CCc1cc(-c2ccc(OCc3cc(OC)ccc3-c3ccc(Cl)cc3)cc2)n(C2CCCCC2)n1` [Example 16, Methyl 3-(5-{4-[(4′-chloro-4-methoxy-1,1′-biphenyl-2-yl)methoxy]phenyl}-1-cyclohexyl-1H-pyrazol-3-yl)propanoate] to `COc1ccc(-c2ccc(Cl)cc2)c(COc2ccc(-c3cc(CCC(=O)O)nn3C3CCCCC3)cc2)c1` [Example 17, 3-(5-{4-[(4′-chloro-4-methoxy-1,1′-biphenyl-2-yl)methoxy]phenyl}-1-cyclohexyl-1H-pyrazol-3-yl)propanoic acid], the IC50 falls from > 25 µM to 1.8 µM.

Going from `O=C(O)C#Cc1cc(-c2ccc(OCc3ccccc3)cc2)n(C2CCCCC2)n1` [Example 19, 3-{5-[4-(benzyloxy)phenyl]-1-cyclohexyl-1H-pyrazol-3-yl}-2-propynoic acid] to `O=C(O)/C=C/c1nn(C2CCCCC2)c(-c2ccc(OCc3ccccc3)cc2)c1Br` [Example 24, (2E)-3-{5-[4-(benzyloxy)phenyl]-4-bromo-1-cyclohexyl-1H-pyrazol-3-yl}-2-propenoic acid], the IC50 falls from 4.9 µM to 3.1 µM (1.6-fold).

Compared with `CCOC(=O)C#Cc1cc(-c2ccc(OCc3cc(OC)ccc3-c3ccc(Cl)cc3)cc2)n(C2CCCCC2)n1` [Example 20, Ethyl 3-(5-{4-[(4′-chloro-4-methoxy-1,1′-biphenyl-2-yl)methoxy]phenyl}-1-cyclohexyl-1H-pyrazol-3-yl)-2-propynoate], `COc1ccc(-c2ccc(Cl)cc2)c(COc2ccc(-c3cc(C#CC(=O)O)nn3C3CCCCC3)cc2)c1` [Example 21, 3-(5-{4-[(4′-chloro-4-methoxy-1,1′-biphenyl-2-yl)methoxy]phenyl}-1-cyclohexyl-1H-pyrazol-3-yl)-2-propynoic acid] is lower in IC50: > 25 µM for the first, 2.3 µM for the second.

`CCOC(=O)c1nn(C2CCCCC2)c(-c2ccc(OCc3ccccc3)cc2)c1Br` [Example 22, Ethyl 5-[4-(benzyloxy)phenyl]-4-bromo-1-cyclohexyl-1H-pyrazole-3-carboxylate] and `COC(=O)/C=C/c1nn(C2CCCCC2)c(-c2ccc(OCc3ccccc3)cc2)c1Br` [Example 23, Methyl (2E)-3-{5-[4-(benzyloxy)phenyl]-4-bromo-1-cyclohexyl-1H-pyrazol-3-yl}-2-propenoate] cannot be ordered by IC50: > 25 µM for the first, > 25 µM for the second.

`COC(=O)/C=C/c1nn(C2CCCCC2)c(-c2ccc(OCc3ccccc3)cc2)c1-c1ccccc1` [Example 25, Methyl (2E)-3-{5-[4-(benzyloxy)phenyl]-1-cyclohexyl-4-phenyl-1H-pyrazol-3-yl}-2-propenate] and `COC(=O)/C=C/c1nn(C2CCCCC2)c(-c2ccc(OCc3cc(OC)ccc3-c3ccc(Cl)cc3)cc2)c1-c1ccccc1` [Example 27] cannot be ordered by IC50: > 25 µM for the first, > 25 µM for the second.
